For one assay, the target named is Nociceptin receptor (Homo sapiens, UniProt P41146). The assay is described as follows: Agonist activity at human NOP receptor expressed in CHO cells assessed as stimulation of calcium mobilization by Fluo-4 AM dye based analysis.
Assay [1] addresses T1, Mu-type opioid receptor (Homo sapiens, UniProt P35372). The assay is described as follows: Agonist activity at human mu opioid receptor expressed in CHO cells assessed as stimulation of calcium mobilization by Fluo-4 AM dye based analysis. On the technique in general: A change in cytosolic calcium serves as a functional read-out for many receptors and channels.
The next assay has as its system CHO. The assay is described as follows: Concentration ratio of human NOP receptor expressed in CHO cells to human mu opioid receptor expressed in CHO cells. The format is cell-based.
For assay [2], the target named is T1, Mu-type opioid receptor. As to conditions: CHO.
Assay [3] deals with T1, Mu-type opioid receptor. Kind of assay: Agonist activity at human mu opioid receptor expressed in CHO cells assessed as stimulation of calcium mobilization by measuring concentration relative curve at 10 uM by Fluo-4 AM dye based analysis. It counts as functional, cell-based.

Active and inactive are the calls of the source. No cut-off for these calls is given here. Where a SMILES comes first, the peptide text is derived from it. [ ]: non-standard residue; d: D form. Phe(4-NO2) = N[C@@H](Cc1ccc([N+](=O)[O-])cc1)C(=O)O; Bip = N[C@@H](Cc1ccc(-c2ccccc2)cc1)C(=O)O; Phe(4-NH2) = Nc1ccc(C[C@H](N)C(=O)O)cc1; Phe(4-F) = N[C@@H](Cc1ccc(F)cc1)C(=O)O; 1Nal = N[C@@H](Cc1cccc2ccccc12)C(=O)O; 2Nal = N[C@@H](Cc1ccc2ccccc2c1)C(=O)O; Dmt = Cc1cc(O)cc(C)c1C[C@H](N)C(=O)O; hPhe = N[C@@H](CCc1ccccc1)C(=O)O; Phg = N[C@H](C(=O)O)c1ccccc1; Dab = NCC[C@H](N)C(=O)O; Abu = CC[C@H](N)C(=O)O; Dap = NC[C@H](N)C(=O)O A value given as a limit tells only on which side of the number the result lay.

T1 sequence (P35372 whole entry): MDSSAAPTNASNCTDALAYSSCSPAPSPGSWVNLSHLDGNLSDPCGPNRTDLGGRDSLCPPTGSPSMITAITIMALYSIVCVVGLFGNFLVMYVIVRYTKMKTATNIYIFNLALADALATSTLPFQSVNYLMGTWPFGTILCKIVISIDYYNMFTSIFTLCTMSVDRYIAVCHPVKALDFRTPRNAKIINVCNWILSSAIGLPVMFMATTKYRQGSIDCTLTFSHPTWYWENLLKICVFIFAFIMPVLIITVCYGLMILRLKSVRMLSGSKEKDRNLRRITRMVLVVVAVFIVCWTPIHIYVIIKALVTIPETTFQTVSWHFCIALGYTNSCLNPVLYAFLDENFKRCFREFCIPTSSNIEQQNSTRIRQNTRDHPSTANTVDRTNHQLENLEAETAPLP
Chain of Nociceptin receptor (P41146 whole entry): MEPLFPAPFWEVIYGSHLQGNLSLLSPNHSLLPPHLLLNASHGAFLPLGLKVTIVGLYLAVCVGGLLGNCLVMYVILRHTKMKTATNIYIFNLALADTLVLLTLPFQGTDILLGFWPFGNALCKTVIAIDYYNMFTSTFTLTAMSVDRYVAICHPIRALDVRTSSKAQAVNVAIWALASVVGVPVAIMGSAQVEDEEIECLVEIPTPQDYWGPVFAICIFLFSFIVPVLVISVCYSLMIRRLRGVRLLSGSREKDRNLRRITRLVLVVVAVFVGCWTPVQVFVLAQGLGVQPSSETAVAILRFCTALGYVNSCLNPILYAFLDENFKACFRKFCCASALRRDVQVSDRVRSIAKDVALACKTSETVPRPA

The term EC50 denotes the concentration giving half of the maximal effect. With `Cc1cc(O)cc(C)c1C[C@H](N)C(=O)NCC(=O)NCC(=O)N[C@@H](Cc1ccccc1)C(=O)N[C@H](C(=O)NCC(=O)N[C@@H](C)C(=O)N[C@@H](CCCNC(=N)N)C(=O)N[C@@H](CCCCN)C(=O)N[C@@H](CO)C(=O)N[C@@H](C)C(=O)N[C@@H](CCCNC(=N)N)C(=O)N[C@@H](CCCCN)C(N)=O)[C@@H](C)O`, the EC50 at Nociceptin receptor was 0.00269 µM; at Mu-type opioid receptor [1], 0.0427 µM. Further, in the assay on CHO, the Ratio turned out to be 0.06.
Take `C[C@H](NC(=O)CNC(=O)[C@@H](NC(=O)[C@H](Cc1ccccc1)NC(=O)CNC(=O)CNC(=O)[C@@H](N)Cc1ccccc1)[C@@H](C)O)C(=O)N[C@@H](CCCNC(=N)N)C(=O)N[C@@H](CCCCN)C(=O)N[C@@H](CO)C(=O)N[C@@H](C)C(=O)N[C@@H](CCCNC(=N)N)C(=O)N[C@@H](CCCCN)C(N)=O`: at Mu-type opioid receptor [2], the pEC50 result is “inactive”.
In the case of `COc1ccc(C[C@H](NC(=O)[C@H](Cc2ccccc2)NC(=O)CNC(=O)CNC(=O)[C@@H](N)Cc2ccc(O)cc2)C(=O)NCC(=O)N[C@@H](C)C(=O)N[C@@H](CCCNC(=N)N)C(=O)N[C@@H](CCCCN)C(=O)N[C@@H](CO)C(=O)N[C@@H](C)C(=O)N[C@@H](CCCNC(=N)N)C(=O)N[C@@H](CCCCN)C(N)=O)cc1` (H-YGGFY(Me)GARKSARK-NH2), the pEC50 result at Mu-type opioid receptor [3] is “inactive”. In addition, the 50% effective concentration (EC50) on Nociceptin receptor was 0.0132 µM. In addition, in the assay on CHO, the Ratio stood at 0.02.
With `C[C@H](NC(=O)CNC(=O)[C@H](Cc1ccc2ccccc2c1)NC(=O)[C@H](Cc1ccccc1)NC(=O)CNC(=O)CNC(=O)[C@@H](N)Cc1ccc(O)cc1)C(=O)N[C@@H](CCCNC(=N)N)C(=O)N[C@@H](CCCCN)C(=O)N[C@@H](CO)C(=O)N[C@@H](C)C(=O)N[C@@H](CCCNC(=N)N)C(=O)N[C@@H](CCCCN)C(N)=O` (H-YGGF[2Nal]GARKSARK-NH2), at Mu-type opioid receptor [3], the pEC50 result is “inactive”.
The same measure, in the same setting: as for `CC[C@H](NC(=O)[C@H](Cc1ccccc1)NC(=O)CNC(=O)CNC(=O)[C@@H](N)Cc1ccc(O)cc1)C(=O)NCC(=O)N[C@@H](C)C(=O)N[C@@H](CCCNC(=N)N)C(=O)N[C@@H](CCCCN)C(=O)N[C@@H](CO)C(=O)N[C@@H](C)C(=O)N[C@@H](CCCNC(=N)N)C(=O)N[C@@H](CCCCN)C(N)=O` (H-YGGF[Abu]GARKSARK-NH2), the entry is “inactive”.
Consider `C[C@H](NC(=O)CNC(=O)[C@H](Cc1ccc(-c2ccccc2)cc1)NC(=O)[C@H](Cc1ccccc1)NC(=O)CNC(=O)CNC(=O)[C@@H](N)Cc1ccc(O)cc1)C(=O)N[C@@H](CCCNC(=N)N)C(=O)N[C@@H](CCCCN)C(=O)N[C@@H](CO)C(=O)N[C@@H](C)C(=O)N[C@@H](CCCNC(=N)N)C(=O)N[C@@H](CCCCN)C(N)=O` (H-YGGF[Bip]GARKSARK-NH2), for which the pEC50 entry at Mu-type opioid receptor [3] was “inactive”.
Still for that read-out and setting: then `C[C@H](NC(=O)CNC(=O)[C@H](CCN)NC(=O)[C@H](Cc1ccccc1)NC(=O)CNC(=O)CNC(=O)[C@@H](N)Cc1ccc(O)cc1)C(=O)N[C@@H](CCCNC(=N)N)C(=O)N[C@@H](CCCCN)C(=O)N[C@@H](CO)C(=O)N[C@@H](C)C(=O)N[C@@H](CCCNC(=N)N)C(=O)N[C@@H](CCCCN)C(N)=O` (H-YGGF[Dab]GARKSARK-NH2), with “inactive”; and `C[C@H](NC(=O)CNC(=O)[C@H](CN)NC(=O)[C@H](Cc1ccccc1)NC(=O)CNC(=O)CNC(=O)[C@@H](N)Cc1ccc(O)cc1)C(=O)N[C@@H](CCCNC(=N)N)C(=O)N[C@@H](CCCCN)C(=O)N[C@@H](CO)C(=O)N[C@@H](C)C(=O)N[C@@H](CCCNC(=N)N)C(=O)N[C@@H](CCCCN)C(N)=O` (H-YGGF[Dap]GARKSARK-NH2), with “inactive”.
For the compound `Cc1cc(O)cc(C)c1C[C@H](NC(=O)[C@H](Cc1ccccc1)NC(=O)CNC(=O)CNC(=O)[C@@H](N)Cc1ccc(O)cc1)C(=O)NCC(=O)N[C@@H](C)C(=O)N[C@@H](CCCNC(=N)N)C(=O)N[C@@H](CCCCN)C(=O)N[C@@H](CO)C(=O)N[C@@H](C)C(=O)N[C@@H](CCCNC(=N)N)C(=O)N[C@@H](CCCCN)C(N)=O` (H-YGGF[Dmt]GARKSARK-NH2), the EC50 was 0.0178 µM on Nociceptin receptor and 0.195 µM on Mu-type opioid receptor [1]. Besides, the Ratio in the assay with CHO was determined as 0.09.
Turning to `C[C@H](NC(=O)CNC(=O)[C@H](Cc1ccc(F)cc1)NC(=O)[C@H](Cc1ccccc1)NC(=O)CNC(=O)CNC(=O)[C@@H](N)Cc1ccc(O)cc1)C(=O)N[C@@H](CCCNC(=N)N)C(=O)N[C@@H](CCCCN)C(=O)N[C@@H](CO)C(=O)N[C@@H](C)C(=O)N[C@@H](CCCNC(=N)N)C(=O)N[C@@H](CCCCN)C(N)=O` (H-YGGF[Phe(4-F)]GARKSARK-NH2), on Mu-type opioid receptor [3], the pEC50 entry is “inactive”. Also, the concentration for a half-maximal effect (EC50) at Nociceptin receptor was 0.049 µM. Besides, the Ratio in the assay with CHO is 0.06.
With `C[C@H](NC(=O)CNC(=O)[C@H](Cc1ccc(N)cc1)NC(=O)[C@H](Cc1ccccc1)NC(=O)CNC(=O)CNC(=O)[C@@H](N)Cc1ccc(O)cc1)C(=O)N[C@@H](CCCNC(=N)N)C(=O)N[C@@H](CCCCN)C(=O)N[C@@H](CO)C(=O)N[C@@H](C)C(=O)N[C@@H](CCCNC(=N)N)C(=O)N[C@@H](CCCCN)C(N)=O` (H-YGGF[Phe(4-NH2)]GARKSARK-NH2), the 50% effective concentration (EC50) is 0.0302 µM at Nociceptin receptor and 0.372 µM on Mu-type opioid receptor [1]. Besides, the Ratio in the assay with CHO was determined as 0.08.
Turning to `C[C@H](NC(=O)CNC(=O)[C@H](Cc1ccc([N+](=O)[O-])cc1)NC(=O)[C@H](Cc1ccccc1)NC(=O)CNC(=O)CNC(=O)[C@@H](N)Cc1ccc(O)cc1)C(=O)N[C@@H](CCCNC(=N)N)C(=O)N[C@@H](CCCCN)C(=O)N[C@@H](CO)C(=O)N[C@@H](C)C(=O)N[C@@H](CCCNC(=N)N)C(=O)N[C@@H](CCCCN)C(N)=O` (H-YGGF[Phe(4-NO2)]GARKSARK-NH2), at Mu-type opioid receptor [3], the pEC50 entry is “inactive”. For the same compound, at Nociceptin receptor, the EC50 was 0.049 µM. Moreover, in the assay on CHO, the Ratio was 0.06.
As to `C[C@H](NC(=O)CNC(=O)[C@H](CCc1ccccc1)NC(=O)[C@H](Cc1ccccc1)NC(=O)CNC(=O)CNC(=O)[C@@H](N)Cc1ccc(O)cc1)C(=O)N[C@@H](CCCNC(=N)N)C(=O)N[C@@H](CCCCN)C(=O)N[C@@H](CO)C(=O)N[C@@H](C)C(=O)N[C@@H](CCCNC(=N)N)C(=O)N[C@@H](CCCCN)C(N)=O` (H-YGGF[hPhe]GARKSARK-NH2), the pEC50 result at Mu-type opioid receptor [3] was “inactive”.
Take `Cc1cc(O)cc(C)c1C[C@H](N)C(=O)NCC(=O)NCC(=O)N[C@@H](Cc1ccccc1)C(=O)N[C@@H](Cc1ccccc1)C(=O)NCC(=O)N[C@@H](C)C(=O)N[C@@H](CCCNC(=N)N)C(=O)N[C@@H](CCCCN)C(=O)N[C@@H](CO)C(=O)N[C@@H](C)C(=O)N[C@@H](CCCNC(=N)N)C(=O)N[C@@H](CCCCN)C(N)=O` (H-[Dmt]GGFFGARKSARK-NH2): the figures for the EC50 on Nociceptin receptor and on Mu-type opioid receptor [1] were 0.0562 µM and 0.00646 µM, respectively. Also, the Ratio in the assay with CHO came to 8.71.
The matching figures for `Cc1cc(O)cc(C)c1C[C@H](N)C(=O)NCC(=O)NCC(=O)N[C@@H](Cc1ccccc1)C(=O)N[C@@H](Cc1ccc(O)cc1)C(=O)NCC(=O)N[C@@H](C)C(=O)N[C@@H](CCCNC(=N)N)C(=O)N[C@@H](CCCCN)C(=O)N[C@@H](CO)C(=O)N[C@@H](C)C(=O)N[C@@H](CCCNC(=N)N)C(=O)N[C@@H](CCCCN)C(N)=O` (H-[Dmt]GGFYGARKSARK-NH2): 0.123 µM, 0.0155 µM and 7.94.
As to `Cc1cc(O)cc(C)c1C[C@H](N)C(=O)NCC(=O)NCC(=O)N[C@@H](Cc1ccccc1)C(=O)N[C@@H](Cc1cccc2ccccc12)C(=O)NCC(=O)N[C@@H](C)C(=O)N[C@@H](CCCNC(=N)N)C(=O)N[C@@H](CCCCN)C(=O)N[C@@H](CO)C(=O)N[C@@H](C)C(=O)N[C@@H](CCCNC(=N)N)C(=O)N[C@@H](CCCCN)C(N)=O` (H-[Dmt]GGF[1Nal]GARKSARK-NH2), the EC50 is 0.0603 µM at Nociceptin receptor and 0.0158 µM at Mu-type opioid receptor [1]. The Ratio with CHO stood at 3.8.
For the compound `Cc1cc(O)cc(C)c1C[C@H](N)C(=O)NCC(=O)NCC(=O)N[C@@H](Cc1ccccc1)C(=O)N[C@@H](Cc1ccc(N)cc1)C(=O)NCC(=O)N[C@@H](C)C(=O)N[C@@H](CCCNC(=N)N)C(=O)N[C@@H](CCCCN)C(=O)N[C@@H](CO)C(=O)N[C@@H](C)C(=O)N[C@@H](CCCNC(=N)N)C(=O)N[C@@H](CCCCN)C(N)=O` (H-[Dmt]GGF[Phe(4-NH2)]GARKSARK-NH2), the values for the EC50 on Nociceptin receptor and on Mu-type opioid receptor [1] were 0.0263 µM and 0.0151 µM, respectively. Moreover, the Ratio with CHO came to 1.73.
With `Cc1cc(O)cc(C)c1C[C@H](N)C(=O)NCC(=O)NCC(=O)N[C@@H](Cc1ccccc1)C(=O)N[C@H](C(=O)NCC(=O)N[C@@H](C)C(=O)N[C@@H](CCCNC(=N)N)C(=O)N[C@@H](CCCCN)C(=O)N[C@@H](CO)C(=O)N[C@@H](C)C(=O)N[C@@H](CCCNC(=N)N)C(=O)N[C@@H](CCCCN)C(N)=O)c1ccccc1` (H-[Dmt]GGF[Phg]GARKSARK-NH2), the 50% effective concentration (EC50) was 0.112 µM at Nociceptin receptor and 0.00288 µM at Mu-type opioid receptor [1]. Moreover, the Ratio in the assay with CHO came to 39.
Regarding H-YGGFHGARKSARK-NH2, the pEC50 result at Mu-type opioid receptor [3] was “inactive”.
Same read-out and setting: as for H-YGGFK(Ac)GARKSARK-NH2, the entry is “inactive”; as for H-YGGFKGARKSARK-NH2, “inactive”; as for H-YGGFNGARKSARK-NH2, “inactive”.
Take H-YGGFTGARKSARK-NH2: the pEC50 entry at Mu-type opioid receptor [3] was “inactive”. In the assay on CHO, the Ratio is under 0.001.
Turning to H-YGGFVGARKSARK-NH2, the pEC50 entry on Mu-type opioid receptor [3] was “inactive”.
For H-YGGFWGARKSARK-NH2, the pEC50 entry on Mu-type opioid receptor [3] was “inactive”.

Values taken from ChEMBL document CHEMBL5032494, “Novel Mixed NOP/Opioid Receptor Peptide Agonists” (J Med Chem, 2021).
